One assay deals with hiPSCs. The experiment in a line: Maintenance of hiPSCs, FACS of Tra-1-81 and Oct4 over passages. As to conditions: 50 nM O4I3, FACS. In kind it is cell-based, human. Here is the method: Since O4I3 induced sustainable expression of Oct4 and Nanog, the inventors questioned if it supports iPSC self-renewal in single cell expansion. Therefore, the viability of iPSCs, after replating Accutase®-dissociated single iPSCs, was tested in the presence or absence of O4I3. Rocki (Y-27632) was used for the first 24 h to increase iPSCs survival. A nearly 300% higher viability in cells treated with O4I3 (1 nM) was observed. Using 50 nM of O4I3 even 400% increase was observed (FIG. 2A). FACS analysis confirmed homologous expression of iPSCs markers, Tra-1-81 and Oct4, for at least 30 passages (FIG. 2B).
iPSCs were seeded in a 6-well plate coated with Geltrex. Cells were harvested, fixed and permeabilized (if appropriately) as known in the art (Cheng et al, Mol Oncol. 2016 June; 10(6):806-24). Fixed cells were incubated with the primary antibody for 24 h at 4° C. and with the secondary antibody for 1 h at room temperature.

The next assay relates to human fibroblasts. The assay can be described thus: Episome-based reprogramming of human fibroblasts, AP+ / iPSC-like colonies. In kind it is cell-based. As to the method: O4I3 was applied in commercially available episome-based reprogramming cocktail containing episomal vectors for overexpression of Oct4, Sox2, Klf4, Lin28 and L-Myc, as well as suppression of p53. In comparison to non-treated fibroblast cultures, 20 times more alkaline phosphatase (AP) positive colonies were detected in the presence of O4I3 at a concentration of 50 nM in two tested human primary fibroblasts (HF1 and HF2) (FIG. 13).
It is known in the art that senescence or other unknown factors can confer donor fibroblasts resistance to reprogramming. Therefore, O4I3 was tested for its ability to enable reprogramming of refractory fibroblasts. Two human fibroblasts were selected. HFF-LTR7-EGFP at passage >40 carrying EGFP driven by a LTR7 promoter, which was activated during reprogramming, and HF5, isolated from a patient sample, both of which were resistant to an episome-based reprogramming approach (FIG. 13).
Epi5® Episomal iPSC Reprogramming Kit (Life technologies) was used to reprogram human fibroblasts according to the manufacturer's protocol. Briefly, 5,000-50,000 cells were seeded in a 24-well plate for 24 h and then transfected with episomal vectors in N2 B27 medium. After 14 days, cells were re-suspended with 0.5 mM EDTA and re-plated in a 6-well plate in Essential®8 medium. Colonies were isolated after 3-4 weeks with the help of alkaline phosphatase (AP) live stain (Life technologies). Medium was refreshed daily.

The next assay addresses T1, KDM5A (Homo sapiens, UniProt P29375).
T1 construct: magnetic beads were used to immunoprecipitate the respective enzymes from 10^8 cells; endogenous in cells
The experiment in a line: KDM5A inhibition, enzyme immunoprecipitated from cells. In kind it is biochemical. The text has this:
(§1) In mammalian cells, the KDM5 family consists of four members, namely, KDM5A (known as JARID1A), KDM5B (known as JARID1B or PLU1), KDM5C (JARID1C), and KDM5D (JARID1D or SMCY). […] Next, the inventors tested four KDM chemical inhibitors. […] The inventors detected the induction of OCT4, SOX2, and E-Cadherin expression in JIB-04-treated HFs (FIG. 18D).
(§2) Epiquik histone demethylase (H3K4 specific) activity/inhibition assay kit (Epigentek, Biocat, Germany) was used to measure the protective effect of O4I3 and zolpidem on the methylation of H3K4. Their inhibitory effects on LSD1, KDM5s, and KDM4 were determined using Epigenase jarid demethylase activity/inhibition assay kit, Epigenase JMJD2 demethylase activity/inhibition assay kit and EpiQuik histone demethylase LSD1 activity/inhibition assay kit (Epigentek, Biocat, Germany). The total nuclear extraction was used according to manufacturer's instructions. For measuring KDM5A, KDM5B, KDM5C, and KDM5D activity, magnetic beads were used to immunoprecipitate the respective enzymes from 10^8 cells according to the manufacturer's instructions (Cell Signaling Technologies).

The target in another assay is T2, KDM5D (Homo sapiens, UniProt Q9BY66).
T2 construct: magnetic beads were used to immunoprecipitate the respective enzymes from 10^8 cells; endogenous in cells
The experiment in a line: KDM5D inhibition, enzyme immunoprecipitated from cells. The assay is classed as biochemical.
Description: as §1, §2

A further assay concerns promoter of Oct4. The experiment in a line: ChIP-qPCR of H3K4Me3 at the promoter of Oct4 in reprogramming-resistant fibroblasts. The assay is classed as cell-based, human. As to conditions: reprogramming-resistant patient fibroblasts. The text has this:
The importance of active tri-methylation of histone H3 lysine 4 (H3K4Me3) in promoting transcription factors binding to an ‘open’ chromatin state and thereby initiation of reprogramming is known in the art. In good agreement, the inventors found the abundance of H3K4Me3 in O4I3-treated reprogramming-resistant fibroblasts by immunostaining (FIG. 14) and immunoblotting (FIG. 5B). To directly study if O4I3 facilitated the binding of H3K4Me3 to the promoter of Oct4, a CHIP-qPCR experiment was performed.
In reprogramming-resistant HF4, the level of H3K4Me3 at the promoter of OCT4 was increased by OSKM, but was still nearly 1,000-fold lower than that in PSCs (FIG. 19A). […] However, a clear influence on H3K4 methylation was not observed in the presence of KDM5B-, KDM5C-, or KDM5D-siRNA (FIG. 19A). […] Indeed, the reprogramming efficiency is negatively correlated with the expression of KDM5A in 11 HFs (FIG. 19D). Moreover, KDM5A siRNA increased the global level of H3K4Me3 in a dose-dependent manner (FIG. 19E). Of note, the alternation in the occupation of H3K27Me3 at the promoter of OCT4 was more refractory to chemical inhibition or genetic repression of KDM5s in the inventors' experiments (FIG. 19B). […]
A general note: Quantitative PCR measures a nucleic acid by following its amplification.

For another assay, the system named is Oct4. The assay can be described thus: Luciferase reporter assay in NCCIT-Oct4 cells. In kind it is cell-based, human. As to conditions: O4I3 1 nM, a 10,000-fold lower concentration; both reporter cell lines.

pIC50: −log10 of the molar value.

T2 sequence (Q9BY66 whole entry): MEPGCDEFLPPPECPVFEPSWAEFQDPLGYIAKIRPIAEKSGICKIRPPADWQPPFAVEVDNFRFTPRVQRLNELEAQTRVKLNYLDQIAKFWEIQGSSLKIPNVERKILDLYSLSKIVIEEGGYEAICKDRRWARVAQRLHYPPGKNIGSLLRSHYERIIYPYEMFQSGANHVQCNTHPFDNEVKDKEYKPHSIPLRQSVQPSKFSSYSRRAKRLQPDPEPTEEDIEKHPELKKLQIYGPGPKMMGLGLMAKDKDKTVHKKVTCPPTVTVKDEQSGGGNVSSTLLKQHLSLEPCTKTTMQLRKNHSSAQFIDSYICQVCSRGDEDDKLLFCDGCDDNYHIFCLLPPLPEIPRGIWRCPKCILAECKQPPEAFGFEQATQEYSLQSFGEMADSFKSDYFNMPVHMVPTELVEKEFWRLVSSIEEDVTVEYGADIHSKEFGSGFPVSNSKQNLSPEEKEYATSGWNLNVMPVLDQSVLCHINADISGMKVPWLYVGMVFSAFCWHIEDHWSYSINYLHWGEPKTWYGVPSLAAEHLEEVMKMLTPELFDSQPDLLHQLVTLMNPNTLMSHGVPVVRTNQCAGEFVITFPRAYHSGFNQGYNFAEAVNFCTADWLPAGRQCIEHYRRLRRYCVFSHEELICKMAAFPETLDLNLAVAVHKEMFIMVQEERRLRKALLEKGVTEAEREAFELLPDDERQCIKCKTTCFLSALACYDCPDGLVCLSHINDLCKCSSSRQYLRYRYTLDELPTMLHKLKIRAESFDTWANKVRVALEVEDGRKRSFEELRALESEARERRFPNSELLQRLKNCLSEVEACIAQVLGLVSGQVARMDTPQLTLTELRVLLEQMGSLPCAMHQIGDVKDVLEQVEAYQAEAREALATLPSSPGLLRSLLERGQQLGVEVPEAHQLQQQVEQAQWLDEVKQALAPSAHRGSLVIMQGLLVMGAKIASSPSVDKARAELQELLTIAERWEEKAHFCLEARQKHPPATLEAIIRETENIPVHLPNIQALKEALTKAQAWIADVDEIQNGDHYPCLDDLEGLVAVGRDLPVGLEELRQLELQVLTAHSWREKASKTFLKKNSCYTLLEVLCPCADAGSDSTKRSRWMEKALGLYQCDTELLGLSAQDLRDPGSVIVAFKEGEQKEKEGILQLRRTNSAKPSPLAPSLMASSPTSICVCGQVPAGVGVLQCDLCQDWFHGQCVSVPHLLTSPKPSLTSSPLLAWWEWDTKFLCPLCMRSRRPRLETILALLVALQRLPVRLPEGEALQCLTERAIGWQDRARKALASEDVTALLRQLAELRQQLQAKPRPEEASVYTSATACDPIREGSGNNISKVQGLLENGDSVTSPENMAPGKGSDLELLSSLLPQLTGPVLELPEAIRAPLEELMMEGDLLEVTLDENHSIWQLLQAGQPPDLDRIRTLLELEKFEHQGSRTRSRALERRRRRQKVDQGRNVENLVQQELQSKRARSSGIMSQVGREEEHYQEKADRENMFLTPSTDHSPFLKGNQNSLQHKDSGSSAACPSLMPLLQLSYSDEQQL
T1 sequence (P29375 whole entry): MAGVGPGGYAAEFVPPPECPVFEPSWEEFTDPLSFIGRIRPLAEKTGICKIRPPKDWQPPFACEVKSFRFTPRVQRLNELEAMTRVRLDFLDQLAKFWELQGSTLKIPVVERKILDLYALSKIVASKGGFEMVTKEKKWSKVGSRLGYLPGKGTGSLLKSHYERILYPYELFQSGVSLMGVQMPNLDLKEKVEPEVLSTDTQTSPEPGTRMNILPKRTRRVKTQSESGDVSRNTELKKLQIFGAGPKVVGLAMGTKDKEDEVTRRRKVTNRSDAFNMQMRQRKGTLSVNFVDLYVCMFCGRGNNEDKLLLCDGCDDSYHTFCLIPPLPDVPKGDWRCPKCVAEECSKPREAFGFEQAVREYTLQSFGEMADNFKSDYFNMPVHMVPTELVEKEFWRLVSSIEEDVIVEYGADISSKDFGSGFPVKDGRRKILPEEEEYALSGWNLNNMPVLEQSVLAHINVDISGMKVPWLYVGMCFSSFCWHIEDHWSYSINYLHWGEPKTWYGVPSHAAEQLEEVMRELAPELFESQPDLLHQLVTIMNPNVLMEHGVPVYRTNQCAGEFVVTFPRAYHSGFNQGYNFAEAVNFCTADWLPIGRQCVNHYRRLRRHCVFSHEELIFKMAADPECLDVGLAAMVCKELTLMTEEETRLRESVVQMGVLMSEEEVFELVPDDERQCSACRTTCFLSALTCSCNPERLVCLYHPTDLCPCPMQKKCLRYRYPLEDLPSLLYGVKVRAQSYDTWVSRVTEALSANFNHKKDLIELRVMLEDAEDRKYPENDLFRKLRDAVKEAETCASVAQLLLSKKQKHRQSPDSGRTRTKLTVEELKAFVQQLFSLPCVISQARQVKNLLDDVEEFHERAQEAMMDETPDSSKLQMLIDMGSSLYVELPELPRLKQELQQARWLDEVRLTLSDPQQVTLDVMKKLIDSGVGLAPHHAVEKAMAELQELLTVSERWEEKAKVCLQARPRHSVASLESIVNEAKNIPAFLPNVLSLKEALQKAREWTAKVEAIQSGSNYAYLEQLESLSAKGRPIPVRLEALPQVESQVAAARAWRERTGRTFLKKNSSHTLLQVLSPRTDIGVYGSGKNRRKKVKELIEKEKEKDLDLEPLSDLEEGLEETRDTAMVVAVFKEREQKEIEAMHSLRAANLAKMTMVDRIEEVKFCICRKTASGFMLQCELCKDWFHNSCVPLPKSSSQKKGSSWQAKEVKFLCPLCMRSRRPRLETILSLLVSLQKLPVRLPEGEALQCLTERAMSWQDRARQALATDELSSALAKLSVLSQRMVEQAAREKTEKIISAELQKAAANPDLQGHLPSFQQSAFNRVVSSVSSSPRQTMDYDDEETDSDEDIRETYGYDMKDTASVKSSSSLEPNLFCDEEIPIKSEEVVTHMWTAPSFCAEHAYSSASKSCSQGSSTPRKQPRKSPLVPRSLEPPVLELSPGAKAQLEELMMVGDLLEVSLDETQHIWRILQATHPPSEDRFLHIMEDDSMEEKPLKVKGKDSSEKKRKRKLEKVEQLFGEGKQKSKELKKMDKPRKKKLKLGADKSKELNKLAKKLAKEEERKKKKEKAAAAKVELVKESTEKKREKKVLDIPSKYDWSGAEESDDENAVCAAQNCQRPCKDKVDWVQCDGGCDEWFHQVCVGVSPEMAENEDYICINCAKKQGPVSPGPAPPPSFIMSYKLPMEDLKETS

As usually defined, the pIC50 is the IC50 on a negative log10 scale, so that one unit is a factor of ten. A high value points to a small IC50. As for `Cc1ccc(-c2cn3cc(C)ccc3n2)cc1` [O4I3, 6-methyl-2-(p-tolyl)imidazo[1,2-a]pyridine], in the assay on hiPSCs, the “homologous expression of Tra-1-81 and Oct4, number of passages” value is listed as “at least 30 passages”. For the same compound, in the assay on human fibroblasts (50 nM, HF1 and HF2), the “alkaline phosphatase (AP) positive colonies in comparison to non-treated fibroblast cultures” value is 20 times. For the same compound, the “reprogramming of resistant fibroblasts” value in the assay with human fibroblasts (500 Nm, HFF-LTR7-EGFP and HF5) is listed as “appearance of iPSC-like colonies”. Moreover, on KDM5A, the pIC50 is 9.72. On KDM5D, the “IC50 less potent than for KDM5A, KDM5D” value came to 20 fold. The “enrichment of H3K4Me3 at the promoter of Oct4” value with promoter of Oct4 is reported as “increased enrichment”. Also, the “induction versus zolpidem at 10 μM” value with Oct4 was “comparable induction”.

These data come from patent US20200062719A1, “Application of Imidazopyridine Derivatives in Regenerative Medicine” (University of Heidelberg, priority 2018, published 2020).
